Experimental findings from patent US7238681B2, “2-Methylene-18,19-dinor-1α-hydroxy-homopregnacalciferol and its uses” (Wisconsin Alumni Research Foundation, priority 2004, dated 2007) are described below.

Entries after “also recorded” stand apart in the source; their conditions may differ.

In assay [1] the test system is Sprague-Dawley rats. Nature of the assay: Intestinal calcium transport, everted gut sac method, in vitamin D-deficient rats. In kind it is in vivo, rat. On the procedure:
(§1) Male, weanling Sprague-Dawley rats were placed on Diet 11 (0.47% Ca) diet+AEK for one week followed by Diet 11 (0.02% Ca)+AEK for 3 weeks. The rats were then switched to a diet containing 0.47% Ca for one week followed by two weeks on a diet containing 0.02% Ca. Dose administration began during the last week on 0.02% calcium diet. Four consecutive ip doses were given approximately 24 hours apart. Twenty-four hours after the last dose, blood was collected from the severed neck and the concentration of serum calcium determined as a measure of bone calcium mobilization. The first 10 cm of the intestine was also collected for intestinal calcium transport analysis using the everted gut sac method.

Assay [2] deals with 24-hydroxylase (24Ohase) gene promoter in ROS 17/2.8 (bone) cells. Nature of the assay: In vitro transcription assay (24-hydroxylase gene promoter, luciferase reporter). Type of assay: cell-based. The conditions noted are these: FIG. 3; for EC50: ROS 17/2.8 cells, 16 hours after dosing, read-out: EC50, transcriptional activity in bone cells. The protocol:
Transcription activity was measured in ROS 17/2.8 (bone) cells that were stably transfected with a 24-hydroxylase (24Ohase) gene promoter upstream of a luciferase reporter gene (Arbour et al., 1998). Cells were given a range of doses. Sixteen hours after dosing the cells were harvested and luciferase activities were measured using a luminometer. • RLU=relative luciferase units. Intestinal Calcium Transport and Bone Calcium Mobilization

Assay [3] deals with Sprague-Dawley rats. Nature of the assay: Bone calcium mobilization (serum calcium) in vitamin D-deficient rats. In kind it is in vivo, rat. Particulars: for bone calcium mobilization activity (serum calcium): vitamin D-deficient rats, low calcium diet (0.02%), four consecutive ip doses, FIG. 4. On the procedure: as §1
Assay [4] deals with Human promyelocytic leukemia (HL60) cells. Nature of the assay: HL-60 differentiation (nitro blue tetrazolium reduction assay). Type of assay: cell-based. Particulars: FIG. 2; for EC50: HL60 cells, four days. On the procedure:
The study drugs were dissolved in ethanol and the concentrations determined using UV spectrophotometry. Serial dilutions were prepared so that a range of drug concentrations could be tested without changing the final concentration of ethanol (≦0.2%) present in the cell cultures.
Human promyelocytic leukemia (HL60) cells were grown in RPMI-1640 medium containing 10% fetal bovine serum. The cells were incubated at 37° C. in the presence of 5% CO2.
HL60 cells were plated at 1.2×10^5 cells/ml. Eighteen hours after plating, cells in duplicate were treated with drug. Four days later, the cells were harvested and a nitro blue tetrazolium reduction assay was performed (Collins et al., 1979; J. Exp. Med. 149:969–974). The percentage of differentiated cells was determined by counting a total of 200 cells and recording the number that contained intracellular black-blue formazan deposits. Verification of differentiation to monocytic cells was determined by measuring phagocytic activity (data not shown).

Assay [5] deals with T1, full-length recombinant rat vitamin D receptor (Rattus norvegicus, UniProt P13053).
T1 construct: Full-length recombinant rat receptor was expressed in E. coli BL21 (DE3) Codon Plus RIL cells; histidine tag (C); made in house; host or cells: E. coli BL21 (DE3) Codon Plus RIL
T1 sequence (P13053 1-423): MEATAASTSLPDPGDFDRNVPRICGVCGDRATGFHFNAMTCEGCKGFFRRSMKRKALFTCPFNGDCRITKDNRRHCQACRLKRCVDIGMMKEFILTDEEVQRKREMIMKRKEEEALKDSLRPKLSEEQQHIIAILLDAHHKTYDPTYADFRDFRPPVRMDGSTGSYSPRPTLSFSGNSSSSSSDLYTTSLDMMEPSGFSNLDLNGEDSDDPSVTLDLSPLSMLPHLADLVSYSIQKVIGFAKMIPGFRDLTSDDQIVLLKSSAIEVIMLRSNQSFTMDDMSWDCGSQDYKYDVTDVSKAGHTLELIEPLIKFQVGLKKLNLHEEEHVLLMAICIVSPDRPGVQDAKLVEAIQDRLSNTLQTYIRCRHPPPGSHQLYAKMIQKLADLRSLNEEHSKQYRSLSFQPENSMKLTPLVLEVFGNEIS
Nature of the assay: Vitamin D receptor binding, competition with [3H]-1,25(OH)2D3. The conditions noted are these: FIG. 1. The protocol: Full-length recombinant rat receptor was expressed in E. coli BL21 (DE3) Codon Plus RIL cells and purified to homogeneity using two different column chromatography systems. The first system was a nickel affinity resin that utilizes the C-terminal histidine tag on this protein. The protein that was eluted from this resin was further purified using ion exchange chromatography (S-Sepharose Fast Flow). Aliquots of the purified protein were quick frozen in liquid nitrogen and stored at −80° C. until use. For use in binding assays, the protein was diluted in TEDK50 (50 mM Tris, 1.5 mM EDTA, pH7.4, 5 mM DTT, 150 mM KCl) with 0.1% Chaps detergent. The receptor protein and ligand concentration were optimized such that no more than 20% of the added radiolabeled ligand was bound to the receptor.
Radiolabeled and unlabeled ligands were added to 100 mcl of the diluted protein at a final ethanol concentration of ≦10%, mixed and incubated overnight on ice to reach binding equilibrium. The following day, 100 mcl of hydroxylapatite slurry (50%) was added to each tube and mixed at 10-minute intervals for 30 minutes. The hydroxylapaptite was collected by centrifugation and then washed three times with Tris-EDTA buffer (50 mM Tris, 1.5 mM EDTA, pH 7.4) containing 0.5% Titron X-100. […] Total binding was determined from the tubes containing only radiolabeled ligand.

Take “2-methylene-19-nor-1α-hydroxy-homopregnacalciferol [Compound 2MP, reference compound]”: the intestinal calcium transport result in assay [1] (2340 pmol/day) was “significant increase”.
As for `C=C1/C(=C\C=C2/CCC[C@]3(C)[C@@H]([C@H](C)CCCC(C)(C)O)CC[C@@H]23)C[C@@H](O)C[C@@H]1O` [1,25(OH)2D3, 1α,25-dihydroxyvitamin D3, reference compound], the EC50 in assay [2] and in assay [4] was 3.2 nM each time. Further, the “bone calcium mobilization activity (serum calcium)” value in assay [3] is “increased serum calcium levels at all dosages”. In addition, in assay [1] (780 pmol/day), the intestinal calcium transport result was “significant increase”.
`C=C1[C@H](O)CC(=C/C=C2\CCC[C@@H]3[C@@H](C(C)C)CC[C@@H]23)C[C@H]1O` [18,19-dinor-2MP, 2-methylene-18,19-dinor-1α-hydroxy-homopregnacalciferol]: the “transcriptional activity relative to 1α,25-dihydroxyvitamin D3 in bone cells” value in assay [2] is reported as “one-tenth”. The EC50 in assay [2] was 15 nM; in assay [4] (Homo sapiens, HL-60, 96 h), 15 nM. For the same compound, the bone calcium mobilization entry is on record as “did not result in mobilization of bone calcium” in assay [3] (780 pmol/day for 4 consecutive days), “without any substantial effect” in assay [3] (2340 pmol/day) and “without any substantial effect” in assay [3] (7020 pmol/day). The “bone calcium mobilization activity (serum calcium)” value in assay [3] was “no measurable bone calcium mobilization activity; also recorded: little, if any, activity in mobilizing calcium from bone”. In addition, the intestinal calcium transport entry in assay [1] (780 pmol/day), in assay [1] (2340 pmol/day) and in assay [1] (7020 pmol/day) was “does not promote intestinal calcium transport” throughout. In addition, the “intestinal calcium transport activity” value in assay [1] (vitamin D-deficient rats, low calcium diet (0.02%), four consecutive ip doses, FIG. 5) was “no measurable activity; also recorded: essentially devoid of intestinal calcium transport activity”. Besides, the “potency on HL-60 cell differentiation compared with 1,25(OH)2D3” value in assay [4] is listed as “almost as potent as 1,25(OH)2D3”. In addition, the Ki in assay [5] (full-length recombinant rat VDR) is 0.22 nM. In addition, the “binding to the receptor as compared to the standard 1,25-(OH)2D3” value in assay [5] (relative to 1,25-(OH)2D3) is reported as “one-fifth as well”.
